# Target: T1, hTDO2 (Homo sapiens, UniProt P48775)
# T1 construct: endogenous in cells; host or cells: A172 human brain glioblastoma cells (ATCC CRL-1620)
# Assay: Cellular assay for TDO2 activity determination in A172 cells
# Format: cell-based
# Conditions: human glioblastoma A172 cells naturally expressing hTDO2; overnight incubation; kynurenine by absorbance at 480 nm
# In short: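 A172 glioblastoma cells endogenously expressing hTDO2, 1.25×10^4 cells/well, incubated overnight at 37 °C, 5% CO2 in IMDM with 2% FBS and ten compound concentrations. Supernatant kynurenine measured after TCA treatment and Ehrlich's reagent (4-dimethylaminobenzaldehyde) by absorbance at 480 nm against a kynurenine standard curve, then curve-fitted.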
# T1 sequence (P48775 whole entry): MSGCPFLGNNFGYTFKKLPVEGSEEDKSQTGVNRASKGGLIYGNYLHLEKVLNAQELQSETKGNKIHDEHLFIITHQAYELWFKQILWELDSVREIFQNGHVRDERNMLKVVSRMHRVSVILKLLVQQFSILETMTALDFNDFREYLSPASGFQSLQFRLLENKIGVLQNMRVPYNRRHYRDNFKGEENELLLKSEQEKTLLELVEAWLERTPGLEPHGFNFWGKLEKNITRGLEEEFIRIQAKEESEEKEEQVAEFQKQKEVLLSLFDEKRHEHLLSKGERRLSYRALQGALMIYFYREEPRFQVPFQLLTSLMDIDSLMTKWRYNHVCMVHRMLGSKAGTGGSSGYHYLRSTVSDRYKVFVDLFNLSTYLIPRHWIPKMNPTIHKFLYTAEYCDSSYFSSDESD
row,SMILES,IC50
1,"COC(=O)NCC1NS(=O)(=O)c2ccc(-c3c[nH]c4cc(F)ccc34)cc21 (single isomer, unassigned; (-)) [Example 21, (−)-methyl ((5-(6-fluoro-1H-indol-3-yl)-1,1-dioxido-2,3-dihydrobenzo[d]isothiazol-3-yl)methyl)carbamate]",156 nM
2,"O=S1(=O)c2ccc(-c3c[nH]c4cc(F)ccc34)cc2CN1C[C@@H](O)CO [Example 35, (R)-2-(2,3-dihydroxypropyl)-5-(6-fluoro-1H-indol-3-yl)-2,3-dihydrobenzo[d]isothiazole 1,1-dioxide]",119 nM
3,"CC1c2cc(-c3c[nH]c4cc(F)ccc34)ccc2S(=O)(=O)N1CCc1n[nH]c(=O)o1 (single isomer, unassigned; (+)) [Example 134, (+)-5-(2-(5-(6-fluoro-1H-indol-3-yl)-3-methyl-1,1-dioxidobenzo[d]isothiazol-2 (3H)-yl)ethyl)-1,3,4-oxadiazol-2(3H)-one]",53 nM

# Results, then the compound that gave them:
row,IC50,SMILES
1,433 nM,"CN1CC(N2Cc3cc(-c4c[nH]c5cc(F)ccc45)ccc3S2(=O)=O)C1 [Example 41, 5-(6-fluoro-1H-indol-3-yl)-2-(1-methylazetidin-3-yl)-2,3-dihydrobenzo[d]isothiazole 1,1-dioxide]"
2,64 nM,"CC(=O)N1CCC(N2C(C)c3cc(-c4c[nH]c5cc(F)ccc45)ccc3S2(=O)=O)CC1 (single isomer, unassigned; (-)) [Example 72, (−)-1-(4-(5-(6-fluoro-1H-indol-3-yl)-3-methyl-1,1-dioxidobenzo[d]isothiazol-2(3H)-yl)piperidin-1-yl)ethanone]"
3,56 nM,"CC1c2cc(-c3c[nH]c4cc(F)ccc34)ccc2S(=O)(=O)N1CC1CCN(C)CC1 (single isomer, unassigned; (+)) [Example 80, (+)-5-(6-fluoro-1H-indol-3-yl)-3-methyl-2-((1-methylpiperidin-4-yl)methyl)-2,3-dihydrobenzo[d]isothiazole 1,1-dioxide]"
